In US20260076986A1 (priority 2022, published 2026):

Tests used:
[1] = cited from earlier work
[2] = test system: glutathione reductase and superoxide desmutases; details: periods of days to weeks; cited from earlier work
[3] = capsules or different food sources; cited from earlier work
animals = details: 20-40 mg/kg/day over 3 to 4 months; cited from earlier work
transgenic AD mice = details: cited from earlier work
rats = details: rat, in vivo, 6 months
[4] = test system: mild and moderate AD patients; assay: phase 2 study of scyllo-inositol 250 mg BID in mild and moderate AD patients over 78 weeks; format: in vivo, human
From the text: The inclusion of mild AD patients with an MMSE score of 20 and 21 was sufficient to mask the efficacy observed in mild AD patients with an MMSE from 22-26.
Scyllo-inositol is a drug that, in oral form, crosses the blood-brain barrier to achieve low mM levels in the blood. […] See McLaurin, J. et. al., J Mol. Biol. (1998): 183-194. […] The population of AD patients in the study was mild to moderate Alzheimer's disease having MMSE of 16-26. […] See Salloway, et al. Neurology 2011; 77:1253-1262.
A randomized, double blind placebo-controlled study phase 2 study explored the safety and efficacy of 250 mg BID administered to mild and moderate AD patients over 78 weeks. One of the primary endpoints used to measure changes in cognition was the Neuropsychological Test Battery (NTB) as well as measuring the levels of biomarkers in the CSF such as Amyloid beta 42 and phosphorylated Tau. The primary analysis compared 250 mg BID […] and placebo (n=82) in mild to moderate patients, and an additional pre-specified analysis was performed in the placebo and treated mild AD patients. […] Similar trends were also observed in other cognition and function tests such CSR-SoB and ADCS-ADL.

[5] = nine phase 1 studies; cited from earlier work
amyloid beta = biological target: T1, amyloid beta (Homo sapiens, UniProt P05067); assay: in vitro formation and breakdown of amyloid beta oligomers, aggregates and fibrils; format: biochemical; details: approximately
T1 construct: cleaved by alpha and beta secretases, producing free amyloid beta peptide
T1 sequence (P05067 672-713 limits assumed): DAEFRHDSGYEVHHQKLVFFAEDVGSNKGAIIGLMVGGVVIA
From the text: Scyllo-inositol is a natural sugar found in many nutrients, including coconut, carrots, grapes and citrus fruits.
Thus, our target concentration in the CSF (which we assume to be similar to the interstitial fluid in the brain) is approximately 2-5 ugm/ml.

neurons = details: cited from earlier work
[6] = scyllo-inositol levels in CSF of AD patients; format: in vivo, human; details: 250 mg BID
hippocampal slices = details: infusion in rat brain, toxic amyloid beta oligomers; cited from earlier work
[7] = test system: Alzheimer transgenic mouse model; details: cited from earlier work
[8] = test system: mild and moderate AD patients; details: cited from earlier work
[9] = clinical safety review of scyllo-inositol (ELND005) studies; format: in vivo, human; details: clinical studies of up to 2.5 years
Method: In the completed studies, […] have been exposed to at least a single dose of ELND005 (161 unique healthy subjects in Phase 1 studies, 306 unique patients in Phase 2 studies). The 306 Mild and Moderate AD patients were treated with ELND005 doses of up to 2000 mg BID. In the completed Phase 2 studies, the duration of treatment was up to 2.5 years with the 250-mg BID dose. The Phase 2 AD studies provided a total of 370.2 patient-years of exposure at any dose. At the dose of 250 mg BID, there have been a total of 154.8 patient-years of exposure in AD patients.
Of the 161 healthy subjects who received ELND005 in Phase 1 studies, 87 were between the ages of 18 and 54 years (inclusive) and 74 were between ages of 55 and 81 years (inclusive). The dose range was 70 to 7000 mg in single-dose studies and 200 to 3000 mg BID in multiple-dose studies for up to 10 days. Patients with AD were treated with 250 mg BID to 2000 mg BID.

O=c1cc(-c2ccc(O)cc2)oc2cc(O)cc(O)c12 [apigenin, 4′,5,7-trihydroxyflavone]
water solubility [1]: reduced water solubility
level of apigenin resulting in elevated glutathione reductase and superoxide desmutases [2]: 3.5-4.5 mgs per day
adverse events [3]: No signs of adverse events
adverse events (animals): No adverse events
amyloid beta half life (transgenic AD mice; Transgenic AD mice, not observed with deleted Aquaporin 4 gene): significantly reduced
efficacy dose observed in animal models (transgenic AD mice; approximately): 20 to 40 mg/kg/day
increase of clearance of amyloid beta in the brain (transgenic AD mice; mouse, in vivo): 30-40%
aquaporin channels on perivascular astrocytes (transgenic AD mice; transgenic AD mice): increased the expression and localization
cognition (transgenic AD mice; transgenic AD mice): reversed the loss in cognition to normal levels
reduction of amyloid beta 42 burden (transgenic AD mice; transgenic mouse model): 20-30%

O[C@H]1[C@H](O)[C@@H](O)[C@H](O)[C@@H](O)[C@@H]1O [scyllo-inositol]
dose safe with no observed pathologies (rats): up to 2500 mg/kg/day
efficacy on cognition and function by MMSE subgroup ([4]; mild AD patients with MMSE score of 22-26): more pronounced
NTB score ([4]; mild AD patients, 250 mg BID): very strong signal in improvement
parameters measured in the NTB that showed improvement ([4]; mild AD patients, 250 mg BID): 7 of the 9
changes in cognition ([4]; mild to moderate patient population, 250 mg BID): not statistically significant
blood brain barrier passage [5]: crosses the blood brain barrier
plasma levels versus dose [5]: dose proportional increase
concentration sufficient to prevent formation of oligomers and break down amyloid beta aggregates and fibrils (amyloid beta): 2-5 ugms/ml
amyloid beta binding to neurons and neurotoxicity (neurons): prevent amyloid beta binding to neurons and reduced neurotoxicity
average scyllo-inositol levels in CSF [6]: 15 µg/mL
dose safe and no pathologies (dogs; dog, in vivo, 12 months): 300 mg/kg/day
adverse events (dogs; dogs, 2000 mg/kg/day for 12 months, skin inflammation, gingivitis and pneumonia): some mild adverse events
long term potentiation (hippocampal slices): restores long term potentiation
reduction of amyloid beta 42 in the brain ([7]; 10 mg/kg and 30 mg/kg): 20-30%
reduction of number of plaques ([7]; 10 mg/kg and 30 mg/kg): 25-50%
cognition in Morris Water maze test ([7]; oral treatment): comparable to normal animals
subgroup analysis versus placebo ([8]; MMSE 23-26, 250 mg BID): did not achieve statistical significance
primary endpoints NTB and/or ADCS-ADL versus placebo ([8]; full analysis set, 250 mg BID, 78 weeks, MMSE 16-26): no statistical significance
efficacy on NTB, CDR-SoB, ADCS-ADL and ADAS-Cog ([8]; mild and moderate AD patients, overall population): failed to show efficacy
primary endpoints NTB and ADCS-ADL, preventing decline versus placebo ([8]; per-protocol sets, 250 mg BID, 78 weeks): no statistically significant different
dose considered safe for long-term use [9]: 250 mg BID
